From article PMC8280143, “A novel dephosphorylation targeting chimera selectively promoting tau removal in tauopathies” (Signal Transduction and Targeted Therapy, 2021)

Assays:
[1] = test system: brain-blood barrier (BBB); test: Brain-blood barrier penetration after tail vein delivery; format: in vivo; settings: delivered through mouse tail vein; 10 mM; 2-month male C57BL/6 mice
Method: (§1) For 2-month male C57BL/6 mice, 10 mM FITC-labeled or unlabeled-DEPTAC were directly injected through the tail vein or lateral ventricle for the evaluation of BBB-penetrability. For 9-month 3×Tg AD mice or Tau368 (20–30 g body weight), unlabeled-DEPTAC (5 mM, 1 μL for each time) was delivered for once into the lateral ventricle through direct stereotaxic injection, or repeatedly administrated through guiding cannulas (RWD, Shenzhen, China) implanted into the lateral ventricle once every 3 days for a consecutive month to test its dephosphorylation efficiency. Mice were restricted in a custom designed device and stayed awake during drug administration, and sacrificed at 24 h post the single or last DEPTAC administration.

pS396-tau = pS396-tau immunostaining in the DG of Tau368 mice; format: in vivo, mouse; settings: DEPTAC for a consecutive month after stopping dox; **p < 0.01, n = 4–5 mice
Method: as §1
Cultured neurons were fixed with 4% paraformaldehyde for 15 min. For animal experiments, mice were anesthetized with 1% pentobarbital sodium and intracardially perfused with normal saline followed by 4% paraformaldehyde (in 0.1 M phosphate buffer, pH 7.4). Mice brains were removed, post-fixed in 4% PFA for 12 h, and then cryoprotected in 20% and 30% sucrose solutions in turn. Fifty micrometer brain sections were sliced using a cryostat microtome (Leica). […]

Substance: (1) YQQYQDATADEQG, originates from the porcine β-tubulin 422–434 for recognizing and binding tau proteins.[5],[6] (2) GSGS, a linker for increasing the flexibility of the peptide.[15] (3) KKVAVVRTPPKSP, for recruiting PP2A-Bα,[16] and (4) RRRRRRRR [DEPTAC, DEPhosphorylation TArgeting Chimera; 38 amino acid residues, C185H314N72O56]
- brain-blood barrier (BBB) penetrating efficiency [1]: limited
- level of pS396-tau immunostaining in the DG (pS396-tau): ameliorated
